One may read the melting point as the temperature, or range, at which the solid turns liquid. `CCCc1cn(C)c2c(=O)[nH]c(-c3cc(S(=O)(=O)N4CCN(CCCOC(C)=O)CC4)ccc3OCC)nc12` [Example 6, 2-{5-[4-(3-Acetoxypropyl)piperazin-1-ylsulfonyl]-2-ethoxyphenyl}-5-methyl-7-n-propyl-3,5-dihydro-4H-pyrrolo[3,2-d]pyrimidin-4-one]: the melting point lay in the range of 157 to 158.5 °C.
As for `CCCOc1ccc(S(=O)(=O)N2CCN(CCOC(C)=O)CC2)cc1-c1nc2c(CCC)cn(CC)c2c(=O)[nH]1` [Example 7, 2-{5-[4-(2-Acetoxyethyl)piperazin-1-ylsulfonyl]-2-n-propoxyphenyl}-5-ethyl-7-n-propyl-3,5-dihydro-4H-pyrrolo[3,2-d]pyrimidin-4-one], the figure is 139 to 140 °C.
Take `CCCOc1ccc(S(=O)(=O)N2CCN(CCOC(=O)CC)CC2)cc1-c1nc2c(CCC)cn(CC)c2c(=O)[nH]1` [Example 10, 5-Ethyl-2-{5-[4-(2-propionyloxyethyl)piperazin-1-ylsulfonyl]-2-n-propoxyphenyl}-7-n-propyl-3,5-dihydro-4H-pyrrolo[3,2-d]pyrimidin-4-one]: the melting point fell in the range of 126.5 to 127.5 °C.
Compound `CCCOc1ccc(S(=O)(=O)N2CCN(CCOC(=O)CCC)CC2)cc1-c1nc2c(CCC)cn(CC)c2c(=O)[nH]1` [Example 12, 2-{5-[4-(2-Butyryloxyethyl)piperazin-1-ylsulfonyl]-2-n-propoxyphenyl}-5-ethyl-7-n-propyl-3,5-dihydro-4H-pyrrolo[3,2-d]pyrimidin-4-one] showed a melting point of 71.5 to 73 °C.
Compound `CCCOc1ccc(S(=O)(=O)N2CCN(CCOC(=O)C(C)C)CC2)cc1-c1nc2c(CCC)cn(CC)c2c(=O)[nH]1` [Example 14, 5-Ethyl-2-{5-[4-(2-isobutyryloxyethyl)piperazin-1-ylsulfonyl]-2-n-propoxyphenyl}-7-n-propyl-3,5-dihydro-4H-pyrrolo[3,2-d]pyrimidin-4-one] displayed a melting point of 88 to 89 °C.
Turning to `CCCOc1ccc(S(=O)(=O)N2CCN(CCOC(=O)c3ccccc3)CC2)cc1-c1nc2c(CCC)cn(CC)c2c(=O)[nH]1` [Example 16, 2-{5-[4-(2-Benzoyloxyethyl)piperazin-1-ylsulfonyl]-2-n-propoxyphenyl}-5-ethyl-7-n-propyl-3,5-dihydro-4H-pyrrolo[3,2-d]pyrimidin-4-one], the melting point was in the range of 78 to 79 °C.
In turn, `CCCOc1ccc(S(=O)(=O)N2CCN(CCOC(=O)OCC)CC2)cc1-c1nc2c(CCC)cn(CC)c2c(=O)[nH]1` [Example 17, 2-{5-[4-(2-Ethoxycarbonyloxyethyl)piperazin-1-ylsulfonyl]-2-n-propoxyphenyl}-5-ethyl-7-n-propyl-3,5-dihydro-4H-pyrrolo[3,2-d]pyrimidin-4-one] gave a melting point of 135 to 136 °C.
As for `CCCOc1ccc(S(=O)(=O)N2CCN(CCOC(C)=O)CC2)cc1-c1nc2c(CCCF)cn(CC)c2c(=O)[nH]1` [Example 19, 2-{5-[4-(2-Acetoxyethyl)piperazin-1-ylsulfonyl]-2-n-propoxyphenyl}-5-ethyl-7-(3-fluoropropyl)-3,5-dihydro-4H-pyrrolo[3,2-d]pyrimidin-4-one], the figure is 134 to 135 °C.

The record behind these values is patent US20050130983A1, “Pyrrolopyrimidinone derivatives, process for preparation thereof, and method of using and composition comprising them” (priority 2002, published 2005).
